In patent publication US20240368120A1 (Terns Pharmaceuticals, Inc., priority 2023, published 2024) one finds EC50 and Emax data, which are given here for 17 compounds.

SMILES strings stand for the structures.

The target in this assay is T1, human GLP-1R receptor (Homo sapiens, UniProt P43220).
T1 construct: expressed in transfected cells
In words: GLP-1R low expression cell assay (cAMP TR-FRET, CHO-K1_hGLP-1Rlow_clone10 cells). The assay is classed as cell-based. The note with it: for EC50: cAMP TR-FRET, 30 min at 25° C.; for Emax: maximum activation relative to control GLP-1 peptide agonist. In outline: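 Readout is cAMP TR-FRET after 30 min compound stimulation at 25 °C of a low-GLP-1R-expressing CHO-K1 clone (1,000 cells/well), with 10-point 3-fold serial dilutions. Percent activation versus a control GLP-1 peptide, from duplicates, was Hill-fitted to give EC50.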
For orientation: Time-resolved FRET reads energy transfer from a long-lived donor to a nearby acceptor.

T1 sequence (P43220 24-463): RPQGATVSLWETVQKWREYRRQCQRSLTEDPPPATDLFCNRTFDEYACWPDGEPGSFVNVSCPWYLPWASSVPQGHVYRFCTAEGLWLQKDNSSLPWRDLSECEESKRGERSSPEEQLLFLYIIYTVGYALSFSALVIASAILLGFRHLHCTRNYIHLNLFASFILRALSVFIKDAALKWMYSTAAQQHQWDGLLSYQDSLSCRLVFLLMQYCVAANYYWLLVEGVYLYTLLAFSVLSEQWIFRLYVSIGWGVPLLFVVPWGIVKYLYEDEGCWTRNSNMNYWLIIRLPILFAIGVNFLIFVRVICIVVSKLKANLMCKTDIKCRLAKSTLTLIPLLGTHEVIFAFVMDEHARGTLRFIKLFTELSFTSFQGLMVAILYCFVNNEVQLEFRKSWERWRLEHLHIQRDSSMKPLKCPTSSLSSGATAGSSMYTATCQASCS

Regarding `Cc1ccc(COc2c(F)cccc2C2CCN(Cc3nc4c(OC(F)F)cc(C(=O)O)cc4n3C)CC2)c(F)c1` [Compound 139, 4-(Difluoromethoxy)-2-((4-(3-fluoro-2-((2-fluoro-4-methylbenzyl)oxy)phenyl)piperidin-1-yl)methyl)-1-methyl-1H-benzo[d]imidazole-6-carboxylic acid], the EC50 lay in the range of 10 to 100 nM and the Emax is greater than 85%.

As to `Cn1c(CN2CCC(c3cccc(F)c3OCc3ccc(Cl)cc3F)CC2)nc2c(OC(F)F)cc(C(=O)O)cc21` [Compound 140, 2-((4-(2-((4-Chloro-2-fluorobenzyl)oxy)-3-fluorophenyl)piperidin-1-yl)methyl)-4-(difluoromethoxy)-1-methyl-1H-benzo[d]imidazole-6-carboxylic acid], the EC50 was 10 to 100 nM and the Emax was greater than 85%.

For `Cn1c(CN2CCC(c3cccc(OCc4ccc(C5COC5)cc4F)n3)CC2)nc2c(OC(F)F)cc(C(=O)O)cc21` [Compound 141, 4-(Difluoromethoxy)-2-((4-(6-((2-fluoro-4-(oxetan-3-yl)benzyl)oxy)pyridin-2-yl)piperidin-1-yl)methyl)-1-methyl-1H-benzo[d]imidazole-6-carboxylic acid], the EC50 was in the range of 10 to 100 nM and the Emax was greater than 85%.

Turning to `Cn1c(N(C)[C@H]2CC[C@@H](c3cccc(OCc4ccc(C#N)cc4F)n3)CC2)nc2c(OC(F)F)cc(C(=O)O)cc21` [Compound 142, 2-(((1s,4s)-4-(6-((4-Cyano-2-fluorobenzyl)oxy)pyridin-2-yl)cyclohexyl)(methyl)amino)-4-(difluoromethoxy)-1-methyl-1H-benzo[d]imidazole-6-carboxylic acid], the EC50 is greater than 1000 nM and the Emax is greater than 85%.

For `N#Cc1ccc(COc2cccc(C3CCN(Cc4nc5c(O)nc(C(=O)O)cc5n4C[C@@H]4CCO4)CC3)n2)c(F)c1` [Compound 143, (S)-2-((4-(6-((4-Cyano-2-fluorobenzyl)oxy)pyridin-2-yl)piperidin-1-yl)methyl)-4-hydroxy-1-(oxetan-2-ylmethyl)-1H-imidazo[4,5-c]pyridine-6-carboxylic acid], the EC50 is less than 10 nM and the Emax is greater than 85%.

In turn, `COc1c(OCc2ccc(C#N)cc2F)cccc1C1CCN(Cc2nc3c(OC(F)F)cc(C(=O)O)cc3n2C)CC1` [Compound 144, 2-((4-(3-((4-Cyano-2-fluorobenzyl)oxy)-2-methoxyphenyl)piperidin-1-yl)methyl)-4-(difluoromethoxy)-1-methyl-1H-benzo[d]imidazole-6-carboxylic acid] registered an EC50 greater than 1000 nM and an Emax of less than 25%.

For the compound `Cn1c(CN2CCC(c3ccnc(OCc4ccc(C#N)cc4F)n3)CC2)nc2c(OC(F)F)cc(C(=O)O)cc21` [Compound 145, 2-((4-(2-((4-Cyano-2-fluorobenzyl)oxy)pyrimidin-4-yl)piperidin-1-yl)methyl)-4-(difluoromethoxy)-1-methyl-1H-benzo[d]imidazole-6-carboxylic acid], the EC50 was in the range of 100 to 1000 nM and the Emax was greater than 85%.

Take `Cn1c(CN2CCC(c3c(F)cccc3OCc3ccc(C#N)cc3F)CC2)nc2c(OC(F)F)cc(C(=O)O)cc21` [Compound 146, 2-((4-(2-((4-Cyano-2-fluorobenzyl)oxy)-6-fluorophenyl)piperidin-1-yl)methyl)-4-(difluoromethoxy)-1-methyl-1H-benzo[d]imidazole-6-carboxylic acid]: the EC50 was greater than 1000 nM and the Emax lay within 50 to 85%.

On to `COc1cc(C(=O)O)cc2c1nc(CN1CCC(c3cccc(OCc4ccc(C#N)cc4F)n3)CC1)n2C(F)F` [Compound 147, 2-((4-(6-((4-Cyano-2-fluorobenzyl)oxy)pyridin-2-yl)piperidin-1-yl)methyl)-1-(difluoromethyl)-4-methoxy-1H-benzo[d]imidazole-6-carboxylic acid], for which the EC50 lay within 100 to 1000 nM and the Emax is greater than 85%.

The compound `Cn1c(CN2CCC(c3cccc(OCc4ccc(Cl)cc4F)c3)CC2)nc2c(OC(F)F)cc(C(=O)O)cc21` [Compound 148, 2-((4-(3-((4-Chloro-2-fluorobenzyl)oxy)phenyl)piperidin-1-yl)methyl)-4-(difluoromethoxy)-1-methyl-1H-benzo[d]imidazole-6-carboxylic acid] registered an EC50 of 100 to 1000 nM and an Emax greater than 85%.

On to `Cn1c(CN2CCC(Oc3cccc(COc4ccc(C#N)cc4F)n3)CC2)nc2c(OC(F)F)cc(C(=O)O)cc21` [Compound 149, 2-((4-((6-((4-Cyano-2-fluorophenoxy)methyl)pyridin-2-yl)oxy)piperidin-1-yl)methyl)-4-(difluoromethoxy)-1-methyl-1H-benzo[d]imidazole-6-carboxylic acid], for which the EC50 was in the range of 10 to 100 nM and the Emax is greater than 85%.

Regarding `Cn1c(CN2CCN(c3cccc(OCc4ccc(Cl)cc4F)n3)CC2)nc2c(OC(F)F)cc(C(=O)O)cc21` [Compound 150, 2-((4-(6-((4-Chloro-2-fluorobenzyl)oxy)pyridin-2-yl)piperazin-1-yl)methyl)-4-(difluoromethoxy)-1-methyl-1H-benzo[d]imidazole-6-carboxylic acid], the EC50 fell in the range of 10 to 100 nM and the Emax is greater than 85%.

As to `Cn1c(CN2CCC(c3cccc(N4CCc5cc(C#N)cc(F)c5C4)n3)CC2)nc2c(OC(F)F)cc(C(=O)O)cc21` [Compound 151, 2-((4-(6-(6-Cyano-8-fluoro-3,4-dihydroisoquinolin-2(1H)-yl)pyridin-2-yl)piperidin-1-yl)methyl)-4-(difluoromethoxy)-1-methyl-1H-benzo[d]imidazole-6-carboxylic acid], the EC50 is 100 to 1000 nM and the Emax is greater than 85%.

`Cn1c(CN2CC=C(c3ccc(F)c(OCc4ccc(Cl)cc4F)c3)CC2)nc2c(OC(F)F)cc(C(=O)O)cc21` [Compound 152, 2-((4-(3-((4-Chloro-2-fluorobenzyl)oxy)-4-fluorophenyl)-3,6-dihydropyridin-1(2H)-yl)methyl)-4-(difluoromethoxy)-1-methyl-1H-benzo[d]imidazole-6-carboxylic acid] registered an EC50 of 10 to 100 nM and an Emax greater than 85%.

As for `Cn1c(CN2CCC(c3cccc(OCc4c(F)cc(Cl)cc4F)n3)CC2)nc2c(OC(F)F)cc(C(=O)O)cc21` [Compound 153, 2-((4-(6-((4-Chloro-2,6-difluorobenzyl)oxy)pyridin-2-yl)piperidin-1-yl)methyl)-4-(difluoromethoxy)-1-methyl-1H-benzo[d]imidazole-6-carboxylic acid], the EC50 is 10 to 100 nM and the Emax is greater than 85%.

Turning to `Cn1c(CN2CC=C(c3cccc(OCc4ccc(Cl)cc4F)n3)CC2)nc2c(OC(F)F)cc(C(=O)O)cc21` [Compound 155, 2-((6-((4-Chloro-2-fluorobenzyl)oxy)-3′,6′-dihydro-[2,4′-bipyridin]-1′(2′H)-yl)methyl)-4-(difluoromethoxy)-1-methyl-1H-benzo[d]imidazole-6-carboxylic acid], the EC50 fell in the range of 10 to 100 nM and the Emax is greater than 85%.

The compound `Cn1c(CN2CCC(Oc3cccc(Cc4ccc(C#N)cc4F)n3)CC2)nc2c(OC(F)F)cc(C(=O)O)cc21` [Compound 157, 2-((4-((6-(4-Cyano-2-fluorobenzyl)pyridin-2-yl)oxy)piperidin-1-yl)methyl)-4-(difluoromethoxy)-1-methyl-1H-benzo[d]imidazole-6-carboxylic acid] came in with an EC50 of 100 to 1000 nM and an Emax greater than 85%.

By EC50 is commonly meant the midpoint of the concentration-response curve. Lower therefore signals greater potency. In general, Emax refers to the greatest response seen or fitted, relative to the assay's reference.
